Experiment: Peptide solubility in aqueous buffers and water
Method: These peptides contained two glutamate or arginine residues at the N- and C-termini for increased solubility. The full amino acid sequence of the purchased Aβ was […] (Peptide 2.0 Inc. Company) and […] (Sigma-Aldrich). The peptide mass was verified using MALDI-TOF mass spectroscopy. To dissolve the peptides, phosphate and acetate aqueous buffers were prepared. None of the buffers contained hydrophobic solvents known to solubilize and stabilize α-helices (i.e. TFE or HFPI) or surfactants known to dissolve hydrophobic peptides (i.e. SDS). Henceforth, the Aβ17–34 peptide refers to the peptide flanked by two glutamates.
To solubilize Aβ, several approaches were taken. One approach was to add two arginines at the N- and C-termini. […] Another approach was to add two glutamic acids at the N- and C-termini.

Row | SMILES | effect of terminal residue addition on solubility | solubility in water | solubility in 50 mM acetate buffer at pH 7 (pH 7) | solubility in 50 mM phosphate buffer at pH 7 (pH 7) | solubility in acetate and phosphate buffers at pH 1, 7 and 10 (acetate and phosphate aqueous buffers, pH 1, 7 and 10, no TFE, HFPI or SDS, compared with peptide without flanking residues)
1 | CC[C@H](C)[C@H](NC(=O)[C@H](C)NC(=O)CNC(=O)[C@H](CCCCN)NC(=O)[C@H](CC(N)=O)NC(=O)[C@H](CO)NC(=O)CNC(=O)[C@@H](NC(=O)[C@H](CC(=O)O)NC(=O)[C@H](CCC(=O)O)NC(=O)[C@H](C)NC(=O)[C@H](Cc1ccccc1)NC(=O)[C@H](Cc1ccccc1)NC(=O)[C@@H](NC(=O)[C@H](CC(C)C)NC(=O)[C@H](CCC(=O)O)NC(=O)[C@@H](N)CCC(=O)O)C(C)C)C(C)C)C(=O)N[C@H](C(=O)NCC(=O)N[C@@H](CC(C)C)C(=O)N[C@@H](CCC(=O)O)C(=O)N[C@@H](CCC(=O)O)C(=O)O)[C@@H](C)CC [Aβ17–34 peptide] | improved solubility drastically | not in water | soluble | soluble | –
2 | CC[C@H](C)[C@H](NC(=O)[C@H](C)NC(=O)CNC(=O)[C@H](CCCCN)NC(=O)[C@H](CC(N)=O)NC(=O)[C@H](CO)NC(=O)CNC(=O)[C@@H](NC(=O)[C@H](CC(=O)O)NC(=O)[C@H](CCC(=O)O)NC(=O)[C@H](C)NC(=O)[C@H](Cc1ccccc1)NC(=O)[C@H](Cc1ccccc1)NC(=O)[C@@H](NC(=O)[C@H](CC(C)C)NC(=O)[C@H](CCCNC(=N)N)NC(=O)[C@@H](N)CCCNC(=N)N)C(C)C)C(C)C)C(=O)N[C@H](C(=O)NCC(=O)N[C@@H](CC(C)C)C(=O)N[C@@H](CCCNC(=N)N)C(=O)N[C@@H](CCCNC(=N)N)C(=O)O)[C@@H](C)CC | – | – | – | – | did not improve solubility
